“Also recorded” adds a separate entry of the source.
Assays:
BCR-ABL = molecular target: T1, BCR-ABL (Homo sapiens, UniProt P00519); assay: Western blot of CrK1 phosphorylation (BCR-ABL activity) in K562 cells; format: cell-based
T1 construct: host or cells: K562; the other entry of the earlier key: BCR (P11274, Breakpoint cluster region protein)
Protocol: (§1) K562 cell line was obtained from the ATCC, and grown in RPMI supplemented with 10% FCS, L-glutamine, and penicillin/streptomycin.
(§2) Exponentially growing cells were plated at 2×10^5 cells/ml, and whole cell lysate processed for western blot analysis using antibodies recognizing eIF4E, phospho-eIF4E (Cell signaling Technology),

[1] = tested on: eIF4E Ser209 phosphorylation in Hela cells; assay: MNK cell-based assay (AlphaScreen SureFire, eIF4E Ser209 phosphorylation); conditions: Homo sapiens; eIF4E Ser209 phosphorylation, Hela cells, 2 hours; read-out: IC50 Hela
In short: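 Hela cells (30,000/well) exposed to test compound in serum-free medium for 2 h at 37 °C, then lysed. Phospho-Ser209 eIF4E quantified by AlphaScreen SureFire; IC50 obtained by non-linear regression of signal versus log compound concentration.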

[2] = tested on: eIF4E phosphorylation in K562 cells; assay: Western blot of eIF4E phosphorylation in K562 cells; format: cell-based; conditions: various concentrations, 24 h
Protocol: as §1, §2

T1 sequence (P00519 with tags, fused parts or gaps): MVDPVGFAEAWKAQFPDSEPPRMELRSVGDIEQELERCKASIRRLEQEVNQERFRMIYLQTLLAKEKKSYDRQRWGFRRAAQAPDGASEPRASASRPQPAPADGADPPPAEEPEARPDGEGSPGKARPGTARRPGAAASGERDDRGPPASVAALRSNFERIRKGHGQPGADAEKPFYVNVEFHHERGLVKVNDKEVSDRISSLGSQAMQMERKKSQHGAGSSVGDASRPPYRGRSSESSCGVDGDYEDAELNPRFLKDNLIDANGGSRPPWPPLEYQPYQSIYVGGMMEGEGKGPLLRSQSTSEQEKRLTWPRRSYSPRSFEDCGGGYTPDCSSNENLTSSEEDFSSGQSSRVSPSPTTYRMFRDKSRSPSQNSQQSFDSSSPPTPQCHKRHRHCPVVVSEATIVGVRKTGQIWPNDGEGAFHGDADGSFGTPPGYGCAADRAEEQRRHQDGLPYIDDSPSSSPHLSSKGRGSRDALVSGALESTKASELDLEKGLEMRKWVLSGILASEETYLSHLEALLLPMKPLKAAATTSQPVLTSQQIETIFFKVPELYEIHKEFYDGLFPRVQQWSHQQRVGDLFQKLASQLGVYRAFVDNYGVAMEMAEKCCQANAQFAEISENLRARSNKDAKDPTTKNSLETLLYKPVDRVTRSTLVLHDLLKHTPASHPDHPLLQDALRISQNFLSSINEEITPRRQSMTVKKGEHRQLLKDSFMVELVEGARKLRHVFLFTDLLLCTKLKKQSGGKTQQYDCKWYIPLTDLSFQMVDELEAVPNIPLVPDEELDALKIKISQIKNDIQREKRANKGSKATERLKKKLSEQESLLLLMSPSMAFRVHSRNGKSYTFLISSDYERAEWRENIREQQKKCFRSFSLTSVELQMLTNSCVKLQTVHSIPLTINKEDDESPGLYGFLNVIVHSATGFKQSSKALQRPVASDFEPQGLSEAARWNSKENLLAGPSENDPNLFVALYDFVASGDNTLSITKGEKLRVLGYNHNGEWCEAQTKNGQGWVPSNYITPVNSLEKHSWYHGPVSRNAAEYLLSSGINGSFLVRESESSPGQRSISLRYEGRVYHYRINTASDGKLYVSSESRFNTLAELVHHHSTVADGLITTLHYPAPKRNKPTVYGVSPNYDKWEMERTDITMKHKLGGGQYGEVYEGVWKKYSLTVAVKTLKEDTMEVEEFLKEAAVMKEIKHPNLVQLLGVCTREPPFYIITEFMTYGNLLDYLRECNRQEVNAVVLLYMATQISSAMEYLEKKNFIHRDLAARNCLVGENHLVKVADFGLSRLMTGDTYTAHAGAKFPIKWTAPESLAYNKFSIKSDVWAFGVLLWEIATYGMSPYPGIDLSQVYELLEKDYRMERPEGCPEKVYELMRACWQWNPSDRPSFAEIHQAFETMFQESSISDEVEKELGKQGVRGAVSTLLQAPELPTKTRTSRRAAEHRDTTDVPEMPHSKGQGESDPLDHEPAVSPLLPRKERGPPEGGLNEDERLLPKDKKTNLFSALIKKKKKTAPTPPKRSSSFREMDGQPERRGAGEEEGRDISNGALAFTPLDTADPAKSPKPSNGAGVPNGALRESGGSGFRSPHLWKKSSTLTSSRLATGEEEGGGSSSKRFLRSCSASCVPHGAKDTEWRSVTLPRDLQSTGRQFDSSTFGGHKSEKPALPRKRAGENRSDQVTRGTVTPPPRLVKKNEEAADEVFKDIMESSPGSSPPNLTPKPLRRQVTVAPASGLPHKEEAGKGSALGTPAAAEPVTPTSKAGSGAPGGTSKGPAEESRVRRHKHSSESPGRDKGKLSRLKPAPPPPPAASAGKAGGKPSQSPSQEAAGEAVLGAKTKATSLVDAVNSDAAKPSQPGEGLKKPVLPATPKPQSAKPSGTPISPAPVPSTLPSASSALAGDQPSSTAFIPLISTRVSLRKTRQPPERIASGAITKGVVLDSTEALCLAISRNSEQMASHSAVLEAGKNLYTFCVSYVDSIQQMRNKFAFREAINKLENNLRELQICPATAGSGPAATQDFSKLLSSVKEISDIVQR

BCR-ABL activity (phosphorylation of CrK1) in K562 cells (BCR-ABL): decrease in BCR-ABL activity | IC50 [1]: < 1000 nM
Compound: N#Cc1ccc(-c2cnc3ccc(-c4ccc(C(=O)N5CCOCC5)cc4)nn23)cc1 [Example 62, 4-(6-(4-(morpholine-4-carbonyl)phenyl)imidazo[1,2-b]pyridazin-3-yl)benzonitrile]
eIF4E phosphorylation in K562 (BC-CML cell line), Western blot [2]: prevent eIF4E phosphorylation; also recorded: decrease in eIF4E phosphorylation

— patent publication US20190211020A1 (Agency for Science, Technology and Research, priority 2012, published 2019)
